Test results from article PMC6193035, “Novel small molecules affecting cell membrane as potential therapeutics for avian pathogenic Escherichia coli” (Scientific Reports, 2018).
≈ marks a conversion by molar mass, not a printed value. Marks after values point to notes of the source that are not given here.

Columns and labels:
APEC O78 [1] = assay: MIC and MBC determination in M63 media; format: cell-based, Escherichia coli; details: for MIC / MBC: Escherichia coli; for MBC: subculture on LB agar
Experimental: (§1) One microlitre SM of each concentration was transferred to each well of a 96-well plate containing 100 µL of the 0.05 OD600 adjusted APEC O78 culture in M63 media. Growth was monitored in Sunrise - Absorbance microplate reader as described above. MIC was indicated by lowest concentration of SM with non-elevated OD600 measurement. MBC was determined by absence of APEC growth on LB agar plate following subculture. […] Two independent experiments were conducted.

APEC O1 = assay: MIC and MBC determination in M63 media; format: cell-based; details: Escherichia coli
APEC O2 = assay: MIC and MBC determination in M63 media; format: cell-based; details: Escherichia coli
APEC O8 = assay: MIC and MBC determination in M63 media; format: cell-based; details: Escherichia coli
APEC O15 = assay: MIC and MBC determination in M63 media; format: cell-based; details: Escherichia coli
APEC O18 = assay: MIC and MBC determination in M63 media; format: cell-based; details: Escherichia coli
APEC O35 = assay: MIC and MBC determination in M63 media; format: cell-based; details: Escherichia coli
APEC O109 = assay: MIC and MBC determination in M63 media; format: cell-based; details: Escherichia coli
APEC O78-53 = assay: MIC and MBC determination in M63 media; format: cell-based; details: Escherichia coli; APEC O78-53, M63 media
Experimental: as §1

APEC O1-63 = assay: MIC and MBC determination in M63 media; format: cell-based; details: Escherichia coli; APEC O1-63, M63 media
APEC O2-211 = assay: MIC and MBC determination in M63 media; format: cell-based; details: Escherichia coli; APEC O2-211, M63 media
[2] = system: biofilm embedded APEC O78; assay: MBEC High-throughput (HTP) assay; format: cell-based, Escherichia coli; details: for MBEC as multiple of MIC (superscript): 18 h challenge in M63 media
Experimental: The effect of cidal SMs against biofilm embedded APEC was determined using MBEC High-throughput (HTP) assay (Innovotech Inc., AB, Canada)[22]. Briefly, 150 μL of 0.05 OD600 adjusted APEC O78 culture was aliquoted into each well of the MBEC device containing polystyrene pegs and incubated at 37 °C for 36 h in LB media under stationary condition. […] The plate was incubated in the dark for 18 h at 37 °C with rotation at 110 rpm. The DMSO (1%) and […] media were used as positive and negative controls, respectively. Following incubation, MIC of SMs in challenged plate was recorded. The SMs exposed pegs were then transferred to a new 96-well plate containing PBS and sonicated for 30 mins (Aquasonic ultrasonic cleaner, VWR) to disrupt the biofilm. The sonicated suspensions were ten-fold serially diluted and plated on LB agar plate. Biofilm embedded APEC bacteria were enumerated and minimum biofilm eradication concentration (MBEC) of SMs were determined as described previously. Two independent experiments were conducted.

APEC O78 [3] = assay: Bacterial cytological profiling by confocal microscopy; format: cell-based, Escherichia coli; details: 2X MBC, 2 h
Experimental: Confocal microscopy was used for bacterial cytological profiling (BCP) to identify the cellular pathways targeted by SMs as described previously. […] After incubation, treated cultures were centrifuged, washed, and resuspended in 100 µL PBS. FM4-64 (#T13320 Molecular Probes/Invitrogen) (1 µg/mL) and SYTO-9 (#S34854 Molecular Probes/Invitrogen) (5 µM) were added to the bacterial cultures and incubated for 45 mins at room temperature with shaking at 150 rpm. Cultures were then centrifuged, washed, and resuspended in PBS to 1/10th volume of the original cultures.

APEC O78 [4] = assay: Loss of 260/280 nm absorbing materials assay; format: cell-based, Escherichia coli; details: 2X MBC, 1 h; for Absorbance 280 nm of treated supernatant: DMSO 2.58; for Absorbance 280 nm of treated supernatant / Absorbance 260 nm of treated supernatant: superscript a P < 0.05 vs DMSO; for Absorbance 260 nm of treated supernatant: DMSO 3.77
Experimental: Membrane permeability assays (crystal violet (CV) uptake and loss of 260/280 nm absorbing materials) were conducted as described previously. […] CV uptake was measured using the formula: (OD DMSO − OD SM/OD DMSO × 100). Two independent experiments in duplicates were conducted.

[5] = system: intracellular APEC O1 in HD11 cells; assay: Intracellular survival assay; format: cell-based, Escherichia coli; details: for minimal effective concentration: Escherichia coli, O1, HD11, 6 h treatment, read-out: SMs intracellular APEC clearance concentration; for concentration at which the SM significantly (P < 0.01) reduced intracellular APEC (superscript of t-statistic): O1, HD11, 6 h
Experimental: (§2) Intracellular survival assay was conducted as described previously[28],[29] to determine the effect of cidal SMs on APEC survival in phagocytic (HD11, THP-1) and non-phagocytic (Caco-2) cells. Briefly, mid-logarithmic phase grown APEC O78, O1, and O2 were washed and adjusted to 1 × 10^7 CFU/mL in cell culture incomplete media (no FBS and antibiotics). One-hundred microlitres adjusted APEC suspension was added at multiplicity of infection (MOI) 10 to wells of 96-well cell culture plate containing cultured macrophage (HD11, THP-1) and epithelial cells (Caco-2) and incubated for 1 h and 3 h, respectively. […] The cells were then lysed with 100 µL of 0.1% Triton X-100 for 5 mins, serially diluted, and plated on LB agar plate to enumerate viable bacteria. The intracellular bacteria in SMs treated wells were compared with DMSO (1%) treated wells. Two independent experiments in duplicate wells for each concentration of SMs were conducted.

[6] = system: intracellular APEC O1 in THP-1 cells; assay: Intracellular survival assay; format: cell-based, Escherichia coli; details: for minimal effective concentration: Escherichia coli, O1, THP-1, 6 h treatment, read-out: SMs intracellular APEC clearance concentration; for intracellular APEC clearance concentration as multiple of MIC (superscript): O1, THP-1; for concentration at which the SM significantly (P < 0.01) reduced intracellular APEC (superscript of t-statistic): O1, THP-1, 6 h
Experimental: as §2

[7] = system: intracellular APEC O2 in Caco-2 cells; assay: Intracellular survival assay; format: cell-based, Escherichia coli; details: for minimal effective concentration: Escherichia coli, O2, Caco-2, 6 h treatment, read-out: SMs intracellular APEC clearance concentration; for concentration at which the SM significantly (P < 0.01) reduced intracellular APEC (superscript of t-statistic): O2, Caco-2, 6 h
Experimental: as §2

[8] = system: intracellular APEC O78 in HD11 cells; assay: Intracellular survival assay; format: cell-based, Escherichia coli; details: for minimal effective concentration: Escherichia coli, O78, HD11, 6 h treatment, read-out: SMs intracellular APEC clearance concentration; for intracellular APEC clearance concentration as multiple of MIC (superscript): O78, HD11; for concentration at which the SM significantly (P < 0.01) reduced intracellular APEC (superscript of t-statistic): O78, HD11, 6 h
Experimental: as §2

CC1CCCN(CCC(=O)c2ccc(Br)cc2)C1 (stereo not drawn) [SM1]
MBC relative to MIC (APEC O78 [1]): identical to MIC
MIC (APEC O78 [1]): 200 µM (≈ 62 µg/mL)
MBC (APEC O78 [1]): 200 µM (≈ 62 µg/mL)
MBC (APEC O1): 250 µM (≈ 77.6 µg/mL)
MIC (APEC O1): 200 µM (≈ 62 µg/mL)
MBC (APEC O2): 200 µM (≈ 62 µg/mL)
MIC (APEC O2): 200 µM (≈ 62 µg/mL)
MBC (APEC O8): 200 µM (≈ 62 µg/mL)
MIC (APEC O8): 200 µM (≈ 62 µg/mL)
MBC (APEC O15): 250 µM (≈ 77.6 µg/mL)
MIC (APEC O15): 200 µM (≈ 62 µg/mL)
MBC (APEC O18): 200 µM (≈ 62 µg/mL)
MIC (APEC O18): 200 µM (≈ 62 µg/mL)
MBC (APEC O35): 200 µM (≈ 62 µg/mL)
MIC (APEC O35): 200 µM (≈ 62 µg/mL)
MBC (APEC O109): 200 µM (≈ 62 µg/mL)
MIC (APEC O109): 200 µM (≈ 62 µg/mL)
MBC (APEC O78-53): 200 µM (≈ 62 µg/mL)
MIC (APEC O78-53): 200 µM (≈ 62 µg/mL)
MBC (APEC O1-63): 250 µM (≈ 77.6 µg/mL)
MIC (APEC O1-63): 200 µM (≈ 62 µg/mL)
MBC (APEC O2-211): 200 µM (≈ 62 µg/mL)
MIC (APEC O2-211): 200 µM (≈ 62 µg/mL)
MBEC as multiple of MIC (superscript) [2]: d (4X MIC)
MBEC as multiple of MIC ([2]; tested 0.5X to 8X MIC): 4 X MIC
cytological profile (FM4-64 / SYTO-9 staining) (APEC O78 [3]): filamentous or short rods (spheroplasts) morphology (PG synthesis inhibitors)
260 nm absorbing materials in supernatant compared with DMSO (APEC O78 [4]): significantly (P < 0.05, Student’s t-test) increased
280 nm absorbing materials in supernatant compared with DMSO (APEC O78 [4]): significantly (P < 0.05, Student’s t-test) increased
Absorbance 280 nm of treated supernatant (APEC O78 [4]): 3.08^a
Absorbance 260 nm of treated supernatant (APEC O78 [4]): 4.00^a
minimal effective concentration [5]: 400 µM
concentration at which the SM significantly (P < 0.01) reduced intracellular APEC (superscript of t-statistic) [5]: a (0.5X MIC)
minimal effective concentration [6]: 400 µM
intracellular APEC clearance concentration as multiple of MIC (superscript) [6]: b (2X MIC)
concentration at which the SM significantly (P < 0.01) reduced intracellular APEC (superscript of t-statistic) [6]: a (0.5X MIC)
minimal effective concentration [7]: > 400 µM
concentration at which the SM significantly (P < 0.01) reduced intracellular APEC (superscript of t-statistic) [7]: b (1X MIC)
minimal effective concentration [8]: 200 µM
intracellular APEC clearance concentration as multiple of MIC (superscript) [8]: a (1X MIC)
concentration at which the SM significantly (P < 0.01) reduced intracellular APEC (superscript of t-statistic) [8]: a (0.5X MIC)

COc1cc(CNCCc2ccc3ccccc3c2)ccc1OCC(O)CN1CCCC1 (stereo not drawn) [SM2]
MBC relative to MIC (APEC O78 [1]): identical to MIC
MIC (APEC O78 [1]): 100 µM (≈ 43.5 µg/mL)
MBC (APEC O78 [1]): 100 µM (≈ 43.5 µg/mL)
MBC (APEC O1): 250 µM (≈ 109 µg/mL)
MIC (APEC O1): 200 µM (≈ 86.9 µg/mL)
MBC (APEC O2): 250 µM (≈ 109 µg/mL)
MIC (APEC O2): 200 µM (≈ 86.9 µg/mL)
MBC (APEC O8): 200 µM (≈ 86.9 µg/mL)
MIC (APEC O8): 100 µM (≈ 43.5 µg/mL)
MBC (APEC O15): 100 µM (≈ 43.5 µg/mL)
MIC (APEC O15): 100 µM (≈ 43.5 µg/mL)
MBC (APEC O18): 200 µM (≈ 86.9 µg/mL)
MIC (APEC O18): 100 µM (≈ 43.5 µg/mL)
MBC (APEC O35): 200 µM (≈ 86.9 µg/mL)
MIC (APEC O35): 100 µM (≈ 43.5 µg/mL)
MBC (APEC O109): 200 µM (≈ 86.9 µg/mL)
MIC (APEC O109): 100 µM (≈ 43.5 µg/mL)
MBC (APEC O78-53): 200 µM (≈ 86.9 µg/mL)
MIC (APEC O78-53): 100 µM (≈ 43.5 µg/mL)
MBC (APEC O1-63): 250 µM (≈ 109 µg/mL)
MIC (APEC O1-63): 200 µM (≈ 86.9 µg/mL)
MBC (APEC O2-211): 100 µM (≈ 43.5 µg/mL)
MIC (APEC O2-211): 100 µM (≈ 43.5 µg/mL)
MBEC as multiple of MIC (superscript) [2]: b (1X MIC)
cytological profile (FM4-64 / SYTO-9 staining) (APEC O78 [3]): bright red foci at random positions throughout the cell indicating membrane defects (membrane pore formers)
280 nm absorbing materials in supernatant compared with DMSO (APEC O78 [4]): significantly (P < 0.05, Student’s t-test) increased
Absorbance 280 nm of treated supernatant (APEC O78 [4]): 2.86^a
Absorbance 260 nm of treated supernatant (APEC O78 [4]): 3.71
minimal effective concentration [5]: 200 µM
concentration at which the SM significantly (P < 0.01) reduced intracellular APEC (superscript of t-statistic) [5]: a (0.5X MIC)
minimal effective concentration [6]: 200 µM
intracellular APEC clearance concentration as multiple of MIC (superscript) [6]: b (2X MIC)
concentration at which the SM significantly (P < 0.01) reduced intracellular APEC (superscript of t-statistic) [6]: a (0.5X MIC)
minimal effective concentration [7]: > 200 µM
concentration at which the SM significantly (P < 0.01) reduced intracellular APEC (superscript of t-statistic) [7]: b (1X MIC)
minimal effective concentration [8]: 100 µM
intracellular APEC clearance concentration as multiple of MIC (superscript) [8]: a (1X MIC)
concentration at which the SM significantly (P < 0.01) reduced intracellular APEC (superscript of t-statistic) [8]: a (0.5X MIC)
